# Patent publication US5244661A, “Process for producing a polyene antibiotic” (Ajinomoto Company, Inc., priority 1989, dated 1993)
# Experiments:
# [1] = tested on: Candida albicans ATCC 10231; assay: minimum growth inhibitory concentration (MIC) against Candida albicans ATCC 10231; type: cell-based
# [2] = tested on: Saccharomyces ubran ATCC 9080; assay: minimum growth inhibitory concentration (MIC) against Saccharomyces ubran ATCC 9080; type: cell-based; settings: Table 3
minimum growth inhibitory concentration (MIC) ([1]; Example 7) [µg/mL],MIC ([1]; Table 3) [µg/mL],MIC [2] [µg/mL],Structure (SMILES)
0.52,–,–,COC(=O)C1C(O)CC2(O)CC(O)CC(O)CC(O)CC(O)CC(=O)CC(O)CC(=O)OC(C(C)CCC(O)CC(=O)c3ccc(N)cc3)C(C)/C=C/C=C/C=C/C=C/C=C/C=C/C=C/C(O[C@H]3O[C@@H](C)[C@H](O)[C@@H](N)[C@H]3O)CC1O2 (stereo partly drawn) [partricin B methyl ester]
–,0.04,0.04,"CC1/C=C/C=C/C=C/C=C/C=C/C=C/C=C/C(O[C@H]2O[C@@H](C)[C@H](O)[C@@H](N)[C@H]2O)CC2OC(O)(CC(O)CC(O)CC(O)CC(O)CC(=O)CC(O)CC(=O)OC1C(C)CCC(O)CC(=O)c1ccc(N)cc1)CC(O)C2C(=O)O (stereo partly drawn) [Partricin B, partricin B]"
